The target in assay [1] is T1, NnOMT1 (Nelumbo nucifera, UniProt A0A3G1RSF0).
T1 construct: gene 6OMT
Briefly: substrate conversion by LC-MS/MS. Conditions: 100 µM substrate, 200 µM SAM, pH 7.5, 30 °C; 6-O-methylation. Type of assay: biochemical.

The subject of assay [2] is NnOMT7. Briefly: LC-MS/MS product quantification, Michaelis-Menten fit. Type of assay: biochemical, Nelumbo nucifera. Conditions: 400 µM SAM, 100 mM Tris-HCl pH 7.5, 30 °C, 5 min.

T1 sequence (A0A3G1RSF0 entry or part of it): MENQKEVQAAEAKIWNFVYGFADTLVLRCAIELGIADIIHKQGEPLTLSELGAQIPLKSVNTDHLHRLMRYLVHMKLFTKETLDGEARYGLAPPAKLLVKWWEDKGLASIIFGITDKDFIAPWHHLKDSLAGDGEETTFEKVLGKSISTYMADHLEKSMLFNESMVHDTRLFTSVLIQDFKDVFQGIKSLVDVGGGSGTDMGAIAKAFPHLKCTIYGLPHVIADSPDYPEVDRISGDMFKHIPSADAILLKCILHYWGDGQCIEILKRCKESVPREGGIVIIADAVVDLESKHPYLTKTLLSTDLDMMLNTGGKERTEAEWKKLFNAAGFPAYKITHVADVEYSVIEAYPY

As to `Oc1ccc(C[C@@H]2NCCc3cc(O)c(O)cc32)cc1` [(S)-norcoclaurine], the “substrate conversion by LC-MS/MS” value in assay [1] is listed as “NnOMT1 activity with racemic norcoclaurine was higher compared with (S)-norcoclaurine”.

As for `COc1cc2c(cc1O)[C@H](Cc1ccc(O)cc1)N(C)CC2` [(S)-N-methylcoclaurine], the Km (commonly the substrate concentration at which the rate is half of its maximum) in assay [2] (7-O-methylation) was determined as 48 ± 4 µM.

With `Oc1ccc(CC2NCCc3cc(O)c(O)cc32)cc1` (racemic) [(R,S)-norcoclaurine], the Km in assay [2] (6-O-methylation) came to 143 ± 30 µM. Also, the “substrate conversion by LC-MS/MS” value in assay [1] is “NnOMT1 activity with racemic norcoclaurine was higher compared with (S)-norcoclaurine”.

The values above are taken from paper PMC9940101, “Elucidation of the (R)-enantiospecific benzylisoquinoline alkaloid biosynthetic pathways in sacred lotus (Nelumbo nucifera)” (Scientific Reports, 2023).
